Experimental data as given in ChEMBL document CHEMBL4028802, “DILIrank: the largest reference drug list ranked by the risk for developing drug-induced liver injury in humans” (Drug Discov Today, 2016).

Legend:
[1] = species: Homo sapiens; assay: Liver toxicity in human assessed as induction of drug-induced liver injury by measuring severity class index
[2] = species: Homo sapiens; assay: Liver toxicity in human assessed as induction of drug-induced liver injury by measuring verified drug-induced liver injury concern status
Throughout, for DILI severity class: key of the grades not given here.

Compound | DILI_severity_class [1] | DILI_Concern [2]
CS(=O)(=O)CCNCc1ccc(-c2ccc3ncnc(Nc4ccc(OCc5cccc(F)c5)c(Cl)c4)c3c2)o1 [LAPATINIB] | 8 | Most-Dili-Concern
O=NN(CCCl)C(=O)NC1CCCCC1 [LOMUSTINE] | 3 | Less-Dili-Concern
NCC[C@H](O)C(=O)N[C@@H]1C[C@H](N)[C@@H](O[C@H]2O[C@H](CN)[C@@H](O)[C@H](O)[C@H]2O)[C@H](O)[C@H]1O[C@H]1O[C@H](CO)[C@@H](O)[C@H](N)[C@H]1O [AMIKACIN] | 0 | No-Dili-Concern
CCC(=O)C(CC(C)N(C)C)(c1ccccc1)c1ccccc1 (centres undefined) [METHADONE] | 3 | Ambiguous-Dili-Concern
CCCCc1oc2ccc(NS(C)(=O)=O)cc2c1C(=O)c1ccc(OCCCN(CCCC)CCCC)cc1 [DRONEDARONE] | 7 | Most-Dili-Concern
Fc1ccccc1C1=NCC(=S)N(CC(F)(F)F)c2ccc(Cl)cc21 [QUAZEPAM] | 0 | No-Dili-Concern
O=C1Nc2ccc(Cl)cc2C(c2ccccc2)=NC1O (centres undefined) [OXAZEPAM] | 5 | Ambiguous-Dili-Concern
O=C(N[C@H](CO)[C@H](O)c1ccc([N+](=O)[O-])cc1)C(Cl)Cl [CHLORAMPHENICOL] | 0 | No-Dili-Concern
CC1=C(C(=O)O)N2C(=O)[C@@H](NC(=O)[C@H](N)c3ccccc3)[C@H]2SC1 [CEPHALEXIN ANHYDROUS] | 4 | Less-Dili-Concern
C[C@H]1c2cccc(O)c2C(=O)C2=C(O)[C@]3(O)C(=O)C(C(N)=O)=C(O)[C@@H](N(C)C)[C@@H]3[C@@H](O)[C@@H]21.O [DOXYCYCLINE] | 3 | Less-Dili-Concern
CN(C)C(=O)C(CCN1CCC(O)(c2ccc(Cl)cc2)CC1)(c1ccccc1)c1ccccc1 [LOPERAMIDE] | 0 | No-Dili-Concern
COC(=O)C1=C(C)NC(C)=C(C(=O)OC(C)C)C1c1cccc2nonc12 (centres undefined) [ISRADIPINE] | 3 | Less-Dili-Concern
CCOc1nc2cccc(C(=O)O)c2n1Cc1ccc(-c2ccccc2-c2nnn[nH]2)cc1 | 3 | Less-Dili-Concern
COCCCOc1cc(C[C@@H](C[C@H](N)[C@@H](O)C[C@H](C(=O)NCC(C)(C)C(N)=O)C(C)C)C(C)C)ccc1OC | 0 | Less-Dili-Concern
N=C(N)N [GUANIDINE] | 3 | Ambiguous-Dili-Concern
CC1(C)S[C@@H]2[C@H](NC(=O)[C@H](N)c3ccc(O)cc3)C(=O)N2[C@H]1C(=O)O [AMOXICILLIN] | 5 | Less-Dili-Concern
CC=CC1=C(C(=O)O)N2C(=O)[C@@H](NC(=O)[C@H](N)c3ccc(O)cc3)[C@H]2SC1 [CEFPROZIL] | 4 | Less-Dili-Concern
CC(=O)Oc1ccc(C(=C2CCCCC2)c2ccc(OC(C)=O)cc2)cc1 [CYCLOFENIL] | 8 | Most-Dili-Concern
c1cnc2cc3c(cc2n1)[C@@H]1CNC[C@H]3C1 [VARENICLINE] | 2 | Less-Dili-Concern
OC[C@@H](O)[C@@H](O)[C@H](O)[C@@H](O)CO [SORBITOL] | 0 | No-Dili-Concern
O=C1CCc2ccc(OCCCCN3CCN(c4cccc(Cl)c4Cl)CC3)cc2N1 [ARIPIPRAZOLE] | 5 | Ambiguous-Dili-Concern
O=C(O)P(=O)(O)O [FOSCARNET] | 3 | Ambiguous-Dili-Concern
O=P1(NCCCl)OCCCN1CCCl (centres undefined) [IFOSFAMIDE] | 4 | Less-Dili-Concern
Nc1nc2c(c(=O)[nH]1)N(C=O)C(CNc1ccc(C(=O)N[C@@H](CCC(=O)O)C(=O)O)cc1)CN2 (some centres undefined) [LEUCOVORIN] | 0 | No-Dili-Concern
CC(=O)NO [ACETOHYDROXAMIC ACID] | 3 | Ambiguous-Dili-Concern
NC[C@H](O)c1ccc(O)c(O)c1 [NOREPINEPHRINE] | 0 | No-Dili-Concern

Compound | DILI_severity_class [1] | DILI_Concern [2]
N[C@@H](CC(=O)N1CCn2c(nnc2C(F)(F)F)C1)Cc1cc(F)c(F)cc1F [SITAGLIPTIN] | 4 | Less-Dili-Concern
CNC1(c2ccccc2Cl)CCCCC1=O (centres undefined) [KETAMINE] | 0 | Less-Dili-Concern
CC(O)C(=O)[O-].[Na+] (centres undefined) [SODIUM LACTATE] | 0 | No-Dili-Concern
CC(=O)NC[C@H]1CN(c2ccc(N3CCOCC3)c(F)c2)C(=O)O1 [LINEZOLID] | 3 | Less-Dili-Concern
CCC[C@@]1(CCc2ccccc2)CC(O)=C([C@H](CC)c2cccc(NS(=O)(=O)c3ccc(C(F)(F)F)cn3)c2)C(=O)O1 | 8 | Most-Dili-Concern
CCCCc1oc2ccccc2c1C(=O)c1cc(I)c(OCCN(CC)CC)c(I)c1 [AMIODARONE] | 8 | Most-Dili-Concern
Cc1ccc(C)c(OCCCC(C)(C)C(=O)O)c1 [GEMFIBROZIL] | 4 | Most-Dili-Concern
CC(C)[N+](C)(CCOC(=O)C1c2ccccc2Oc2ccccc21)C(C)C [PROPANTHELINE] | 0 | No-Dili-Concern
CC[C@@H](c1cccc(O)c1)[C@@H](C)CN(C)C [TAPENTADOL] | 0 | No-Dili-Concern
c1ccc2[nH]c(-c3cscn3)nc2c1 [THIABENDAZOLE] | 7 | Most-Dili-Concern
C[C@H](/C=C/[C@H](C)C(C)(C)O)[C@H]1CC[C@H]2/C(=C/C=C3C[C@@H](O)C[C@H](O)C3)CCC[C@]12C [PARICALCITOL] | 3 | Ambiguous-Dili-Concern
CCCCCCC(C)(C)c1cc(O)c2c(c1)OC(C)(C)C1CCC(=O)CC21 (centres undefined) [NABILONE] | 0 | No-Dili-Concern
COc1ccccc1OCCNCC(O)COc1cccc2[nH]c3ccccc3c12 (centres undefined) [CARVEDILOL] | 3 | Less-Dili-Concern
C/C=C1\NC(=O)[C@@H]2CSSCC/C=C/[C@@H](CC(=O)N[C@H](C(C)C)C(=O)N2)OC(=O)[C@H](C(C)C)NC1=O | 0 | No-Dili-Concern
CO/N=C(\C(=O)N[C@@H]1C(=O)N2C(C(=O)O)=C(/C=C\c3scnc3C)CS[C@H]12)c1csc(N)n1 [CEFDITOREN] | 2 | Ambiguous-Dili-Concern
C[C@]12COC(=O)C[C@@H]1CC[C@@H]1[C@@H]2CC[C@@]2(C)[C@H]1CC[C@]2(C)O [OXANDROLONE] | 8 | Most-Dili-Concern
COc1cc2ncnc(Nc3ccc(F)c(Cl)c3)c2cc1OCCCN1CCOCC1 [GEFITINIB] | 4 | Most-Dili-Concern
CC#C[C@]1(O)CC[C@H]2[C@@H]3CCC4=CC(=O)CCC4=C3[C@@H](c3ccc(N(C)C)cc3)C[C@@]21C [MIFEPRISTONE] | 0 | No-Dili-Concern
CC(COc1ccccc1)NN (centres undefined) [PHENOXYPROPAZINE] | 8 | Most-Dili-Concern
Cc1ccc(-c2cc(C(F)(F)F)nn2-c2ccc(S(N)(=O)=O)cc2)cc1 [CELECOXIB] | 3 | Less-Dili-Concern
CC(=O)S[C@@H]1CC2=CC(=O)CC[C@]2(C)[C@H]2CC[C@@]3(C)[C@@H](CC[C@@]34CCC(=O)O4)[C@H]12 [SPIRONOLACTONE] | 2 | Less-Dili-Concern
CC(C)CN(C[C@@H](OP(=O)(O)O)[C@H](Cc1ccccc1)NC(=O)O[C@H]1CCOC1)S(=O)(=O)c1ccc(N)cc1 [FOSAMPRENAVIR] | 3 | Ambiguous-Dili-Concern
VITAMIN E | 0 | No-Dili-Concern
CN(C)CCC=C1c2ccccc2CCc2ccccc21 [AMITRIPTYLINE] | 5 | Less-Dili-Concern
Cc1[nH]c(=O)c(C#N)cc1-c1ccncc1 [MILRINONE] | 3 | Ambiguous-Dili-Concern
Cc1nc(Nc2ncc(C(=O)Nc3c(C)cccc3Cl)s2)cc(N2CCN(CCO)CC2)n1.O [DASATINIB] | 4 | Less-Dili-Concern
